Assay results from patent publication US8481028B2, “Compositions for preparing a coffee beverage comprising hydrolysed chlorogenic acid” (Nestec S.A., priority 2008, dated 2013).

Key:
[1] = test system: Lactobacillus johnsonii (CNCM I-1225); experiment: Gastric small-intestinal model (TIM), hydrolysis of 5-CQA during simulated digestion; conditions: 6 h digestion, with addition of L. johnsonii
Experimental: The gastric small-intestinal model, TIM-1, comprises four connected compartments that represent the stomach, duodenum, jejunum and ileum, respectively. Each compartment consists of a glass outer wall with a flexible inner wall. The flexible wall is surrounded by water at 37° C. to squeeze the walls, which ensures mixing of the food with the secreted enzymes by peristaltic movements in the gastro-intestinal tract.
The experiments in the model were performed under average physiological conditions of the gastro-intestinal tract. During the experiments, the temperature was kept at 37° C. and salivary, gastric, biliary, and pancreatic secretions were simulated. The digestion process in the model was monitored for 6 h. During the first 3.5 h, the gastric content was gradually delivered into the small intestine “pyloric valve”. […]
4.5 g of NESCAFE PROTECT® (a co-extract of green and roasted coffee beans) were dissolved in 310 ml acetate buffer (20 mM, pH 6.5). […] After 6 h experiment, the residues from the compartments of the stomach, duodenum, jejunum and ileum were analysed to calculate the mass balance of chlorogenic acids. […] After 6 h, the residues from the compartments of the stomach, duodenum, jejunum and ileum were analysed by HPLC to calculate the mass balance of 5-caffeoyl quinic acid.

[2] = test system: Chlorogenate esterase; experiment: Incubation of coffee extracts with chlorogenate esterase, HPLC; type: biochemical, Aspergillus japonicus
Experimental: (§1) Coffee samples were diluted to 1% w/w and analyzed by RP-HPLC on a CC 250/4 Nucleosil 100-5-C18 column (Macherey-Nagel). The eluent system was Millipore water, 0.1% TFA and CH3CN at a flow rate of 1 mL/min. The method allowed the simultaneous determination of caffeoyl quinic acids (CQA), feruloyl quinic acids (FQA), di-caffeoyl quinic acids (diCQA), feruloyl quinic acid-lactones, caffeic acid (CA) and ferulic acid (FA) (absorbance at 325 nm) using external standard calibration curves. Results were expressed relative to the reference at time 0 (t0) or to the reference at the same time without bacteria.
Chlorogenate esterase (24 U/g), derived from Aspergillus japonicus (Kikkoman, Japan). Tannase from Aspergillus oryzae (Kikkoman, Japan) Preparation of Bacteria Cells
A solution of chlorogenate esterase (25 mg) in 200 μl phosphate buffer (pH 7.0) was added to 800 μl of a coffee solution (3%). The mixture was then incubated at 37° C. for 4 h, 16 h and 24 h. After reaction time, the enzymatic activity was stopped by heat treatment (3 min, 90° C.) and the mixture was filtered before analysis.

[3] = test system: concentrated preparation of Lactobacillus johnsonii (CNCM I-1225); experiment: Treatment of NESCAFE with concentrated preparation of L. johnsonii, HPLC
Experimental: 400 mg of NESCAFE SPECIAL FILTRE® (a dried extract of roasted coffee beans) were dissolved in 1 ml of boiling water and the solution was cooled to 37° C. at room temperature. To 250 μl of this coffee solution, different amounts of concentrated preparation of Lactobacillus johnsonii (50 μl, 100 μl, 350 μl, 750 μl) were added and the volume was adjusted to 1 ml with water. The mixtures were than incubated at 37° C. for 2 h and 4 h. After centrifugation (3000 g, 5 min) and filtration the samples were analysed by HPLC.
as §1

[4] = test system: Lactobacillus johnsonii (CNCM I-1225) extract (lysed cells); experiment: Treatment of NESCAFE PROTECT with L. johnsonii extract (lysed cells), HPLC; type: biochemical
Experimental: Cells of L. johnsonii (CNCM I-1225) were grown (7.0 E08 cfu/ml) and centrifuged (5000 g, 10 min), the pellets were resuspended in phosphate buffer (50 mM, pH 7.0) at a concentration of 0.61 g/ml. The cells were then lysed using the glass-beads method. 600 μl of cells preparation were put in screw-cap tubes and 600 μl of glass-beads were added at 0° C. The tubes were then put into a Mini-Beadbeater for 1 min of intense shaking, cooled in ice, and put another 1 min in the Mini-Beadbeater. […] Samples were withdrawn at different reaction times, centrifuged (3000 g, 5 min), filtered through 0.45 μm pore size syringe filters (Millipore SLHA 025 BS) and analysed by HPLC.
as §1

[5] = test system: Lactobacillus johnsonii (CNCM I-1225) fresh cells; experiment: Treatment of NESCAFE PROTECT with L. johnsonii fresh cells, HPLC of chlorogenic and phenolic acids
Experimental: Cells of L. johnsonii (CNCM I-1225) were grown (7.0 E08 cfu/ml) and centrifuged (5000 g, 10 min), the pellets were resuspended in phosphate buffer (50 mM, pH 7.0) at a concentration of 0.61 g/ml. […] Samples were withdrawn at different reaction times, centrifuged (3000 g, 5 min) and filtered through 0.45 μm pore size syringe filters (Millipore SLHA 025 BS) and analysed by HPLC.
A reaction control was run in parallel under the same reaction conditions but without bacteria.
as §1

[6] = test system: spray-dried preparation of Lactobacillus johnsonii (CNCM I-1225); experiment: Treatment of green coffee extract with spray-dried preparation of L. johnsonii, HPLC
Experimental: 30 mg of a dried green coffee extract was dissolved in 1 ml phosphate buffer (50 mM, pH 7.0) or in 1 ml water. To this solution, 10 mg of a spray-dried preparation of Lactobacillus johnsonii (3.3 E9 cfu/g) was added. The mixture was then incubated at 37° C. and samples were withdrawn at different reaction times. After centrifugation (3000 g, 5 min) and filtration (0.45 μm pore size syringe filters, Millipore SLHA 025 BS) the samples were analysed by HPLC.
as §1

[7] = test system: Bifidobacterium lactis BB12 (CNCM I-3446); experiment: Treatment of coffee extracts with bacteria cells (B. lactis), HPLC
Experimental: as §1
(§2) Tested strains were harvested (centrifugation at 5000 g for 10 min) after having well reached stationary phase, corresponding to 16 hours of incubation in culture medium at 37° C. in anaerobic atmosphere without agitation. For a first activation of the strains, frozen stock cultures were inoculated in fresh media and grown overnight. This pre-culture was used to inoculate the culture.
(§3) After culture of bacteria and centrifugation, the pellets were resuspended in phosphate buffer (pH 7.0) at a concentration of 0.61 g/ml. To 200 μl of this cells preparation, 800 μl of a coffee solution (3%) was added and the mixture was incubated at 37° C. for 4 h, 16 h and 24 h.

[8] = test system: spray-dried preparation of Lactobacillus johnsonii (CNCM I-1225); experiment: Treatment of NESCAFE PROTECT with spray-dried preparation of L. johnsonii, HPLC
Experimental: To this solution, 10 mg of a spray-dried preparation of Lactobacillus johnsonii (CNCM I-1225) (3.3 E9 cfu/g) were added. The mixture was then incubated at 37° C. and samples were withdrawn at different reaction times. After centrifugation (3000 g, 5 min) and filtration (0.45 μm pore size syringe filters, Millipore SLHA 025 BS) the samples were analysed by HPLC.
as §1

[9] = test system: Lactobacillus johnsonii (CNCM I-1225); experiment: Treatment of coffee extracts with bacteria cells (L. johnsonii), HPLC
Experimental: as §1, §2, §3

For `O=C(/C=C/c1ccc(O)c(O)c1)O[C@@H]1C[C@@](O)(C(=O)O)C[C@@H](O)[C@@H]1O` [5-CQA, 5-caffeoyl quinic acid], the “% hydrolysis of 5-CQA (% hydrolysed of total 5-CQA present in the samples)” value [1] was 48%.

In the case of `COc1cc(/C=C/C(=O)O)ccc1O` [FA, ferulic acid], the “% relative to untreated control at t = 0” value ([2]; NESCAFE PROTECT + Chlorogenate esterase, 4 h) is reported as 2794%, the “% relative to untreated control at t = 0” value ([2]; NESCAFE PROTECT + Chlorogenate esterase, 16 h) is reported as 5140% and the “% relative to untreated control at t = 0” value ([2]; NESCAFE PROTECT + Chlorogenate esterase, 24 h) is reported as 5518%. The “% relative to untreated control at t = 0” value ([2]; green coffee extract + Chlorogenate esterase, 4 h) was 2620%, the “% relative to untreated control at t = 0” value ([2]; green coffee extract + Chlorogenate esterase, 16 h) was 5685% and the “% relative to untreated control at t = 0” value ([2]; green coffee extract + Chlorogenate esterase, 24 h) was 6293%. For the same compound, the “% relative to untreated control at t = 0” value ([3]; cell amount 50 μL/1 mL, 2 h) was 1509%, the “% relative to untreated control at t = 0” value ([3]; cell amount 50 μL/1 mL, 4 h) was 786% and the “% relative to untreated control at t = 0” value ([3]; cell amount 100 μL/1 mL, 2 h) was 2468%. The “% relative to untreated control at t = 0” value ([3]; cell amount 100 μL/1 mL, 4 h) was 1266%, the “% relative to untreated control at t = 0” value ([3]; cell amount 350 μL/1 mL, 2 h) was 5327% and the “% relative to untreated control at t = 0” value ([3]; cell amount 350 μL/1 mL, 4 h) was 2408%. For the same compound, the “% relative to untreated control at t = 0” value ([3]; cell amount 750 μL/1 mL, 2 h) was 7586%, the “% relative to untreated control at t = 0” value ([3]; cell amount 750 μL/1 mL, 4 h) was 3281% and the “Concentration in % relative to untreated reference at t = 0” value ([4]; 2 h, cell preparation 100.0 uL) was 5581%. The “Concentration in % relative to untreated reference at t = 0” value ([4]; 2 h, cell preparation 350.0 uL) was 7771%, the “Concentration in % relative to untreated reference at t = 0” value ([4]; 6 h, cell preparation 100.0 uL) was 6960% and the “Concentration in % relative to untreated reference at t = 0” value ([4]; 6 h, cell preparation 350.0 uL) was 9720%. For the same compound, the “Concentration in % relative to untreated reference at t = 0” value ([5]; 6 h, cell preparation 100 uL) was 4594%, the “Concentration in % relative to untreated reference at t = 0” value ([5]; 6 h, cell preparation 350 uL) was 7234% and the “Concentration in % relative to untreated reference at t = 0” value ([5]; 6 h, cell preparation 750 uL) was 7776%. For the same compound, the “Concentration in % relative to untreated reference at t = 0” value ([5]; 24 h, cell preparation 100 uL) was 6691%, the “Concentration in % relative to untreated reference at t = 0” value ([5]; 24 h, cell preparation 350 uL) was 8861% and the “Concentration in % relative to untreated reference at t = 0” value ([5]; 24 h, cell preparation 750 uL) was 8845%. The “% relative to untreated control at t = 0” value ([6]; 4 h) was 961%, the “% relative to untreated control at t = 0” value ([6]; 6 h) was 1429% and the “% relative to untreated control at t = 0” value ([6]; 16 h) was 1963%. For the same compound, the “% relative to untreated control at t = 0” value ([6]; 24 h) was 2432%, the “% relative to untreated control at t = 0” value ([7]; NESCAFE PROTECT + Bifidobacterium lactis, 4 h) was 3065% and the “% relative to untreated control at t = 0” value ([7]; NESCAFE PROTECT + Bifidobacterium lactis, 16 h) was 4518%. The “% relative to untreated control at t = 0” value ([7]; NESCAFE PROTECT + Bifidobacterium lactis, 24 h) was 5144%, the “% relative to untreated control at t = 0” value ([7]; green coffee extract + Bifidobacterium lactis, 4 h) was 5020% and the “% relative to untreated control at t = 0” value ([7]; green coffee extract + Bifidobacterium lactis, 16 h) was 6970%. The “% relative to untreated control at t = 0” value ([7]; green coffee extract + Bifidobacterium lactis, 24 h) was 7105%, the “% relative to untreated control at t = 0” value ([8]; 2 h) was 1109% and the “% relative to untreated control at t = 0” value ([8]; 6 h) was 2183%. For the same compound, the “% relative to untreated control at t = 0” value ([8]; 24 h) was 3686%, the “% relative to untreated control at t = 0” value ([9]; NESCAFE PROTECT + Lactobacillus johnsonii, 4 h) was 4051% and the “% relative to untreated control at t = 0” value ([9]; NESCAFE PROTECT + Lactobacillus johnsonii, 16 h) was 5226%. For the same compound, the “% relative to untreated control at t = 0” value ([9]; NESCAFE PROTECT + Lactobacillus johnsonii, 24 h) was 5504%, the “% relative to untreated control at t = 0” value ([9]; green coffee extract + Lactobacillus johnsonii, 4 h) was 4607% and the “% relative to untreated control at t = 0” value ([9]; green coffee extract + Lactobacillus johnsonii, 16 h) was 7192%. For the same compound, the “% relative to untreated control at t = 0” value ([9]; green coffee extract + Lactobacillus johnsonii, 24 h) was 7597%.
